Measurements published in patent US7642229B2, “Pharmaceutical composition and a product which includes a substituted acryloyl distamycin derivative, an antimicrotubule agent and/or an antimetabolite” (Nerviano Medical Sciences S.r.l., priority 2000, dated 2010).

Test system: disseminated L1210 murine leukemia
Details: for Tox (number of toxic deaths/number of mice) / ILS % (increase in life span: [(median survival time of treated mice/median survival time of controls) × 100] − 100): L1210 cells 10^5/mouse iv on day 0, PNU 166196 iv + 1.6, 0.78 mg/kg/day; for Tox (number of toxic deaths/number of mice): gemcitabine iv + 1, 15 mg/kg/day; for ILS % (increase in life span: [(median survival time of treated mice/median survival time of controls) × 100] − 100): gemcitabine iv + 1, 15 mg/kg/day (2 h after PNU 166196 administration); for ILS % values: text: gemcitabine 15 mg/kg day +1 after tumor injection, PNU 166196 0.7 mg/kg days +1,6, combination at the same doses and schedule

SMILES | Tox (number of toxic deaths/number of mice) | ILS % (increase in life span: [(median survival time of treated mice/median survival time of controls) × 100] − 100) [%] | ILS % values [%] | toxicity (text: gemcitabine alone 15 mg/kg day +1, PNU 166196 alone 0.7 mg/kg days +1,6)
Nc1ccn([C@@H]2O[C@H](CO)[C@@H](O)C2(F)F)c(=O)n1 [Gemcitabine, gemcitabine, reference compound] | 0/10 | 50 | 50 | 
C=C(Br)C(=O)Nc1cc(C(=O)Nc2cc(C(=O)Nc3cc(C(=O)Nc4cc(C(=O)NCCNC(=N)N)n(C)c4)n(C)c3)n(C)c2)n(C)c1.Cl [PNU 166196, N-(5-{[(5-{[(5-{[(2-{[amino(imino)methyl]amino}ethyl)amino]carbonyl}-1-methyl-1H-pyrrol-3-yl)amino]carbonyl}-1-methyl-1H-pyrrol-3-yl)amino]carbonyl}-1-methyl-1H-pyrrol-3-yl)-4-[(2-bromoacryloyl)amino]-1-methyl-1H-pyrrole-2-carboxamide hydrochloride] | 0/10 | 58 | 58 | without toxicity
